In BindingDB's records for patent US20260042754 (Nodus Oncology, 2026):

Target: Poly(ADP-ribose) glycohydrolase (Homo sapiens, UniProt Q86W56)
Assay: PARG Enzymatic Assay
Experimental: Inhibition of PARG enzymatic activity by compounds was determined as follows: Recombinant His-tagged human PARG protein expressed in Sf21 insect cells (Adipogen AG, #40T-0022) was aliquoted and stored at −80° C. until use. The artificial enzyme substrate 4-(trifluoromethyl)umbelliferone (TFMU)-ADPr was prepared essentially as described (Drown B S et al, Cell Chemical Biology 2018) and stored at −20° C. as 10 mM stock solutions in DMSO (dimethyl sulfoxide) until use. For reactions, typical final concentration of the enzyme was 1 nM and of the TFMU-ADPr 200 μM. Reactions were carried out in black 384-well low volume round bottom assay plates (Corning, #4514) in a final volume of 10 μL. To this end, PARG was diluted to 1.67 nM in reaction buffer (50 mM K2HPO4, 50 mM KCl, 10 mM β-mercaptoethanol, pH 7.4) and 6 μL were dispensed per assay well using a multichannel pipette. […] Fluorescence intensity signals were then measured after 30 minutes on an EnVision microplate reader (PerkinElmer) using 380/10 nm and 535/25 nm filters for the excitation and emission, respectively (gain: 150). […]

Poly(ADP-ribose) glycohydrolase, sequence (Q86W56 whole entry): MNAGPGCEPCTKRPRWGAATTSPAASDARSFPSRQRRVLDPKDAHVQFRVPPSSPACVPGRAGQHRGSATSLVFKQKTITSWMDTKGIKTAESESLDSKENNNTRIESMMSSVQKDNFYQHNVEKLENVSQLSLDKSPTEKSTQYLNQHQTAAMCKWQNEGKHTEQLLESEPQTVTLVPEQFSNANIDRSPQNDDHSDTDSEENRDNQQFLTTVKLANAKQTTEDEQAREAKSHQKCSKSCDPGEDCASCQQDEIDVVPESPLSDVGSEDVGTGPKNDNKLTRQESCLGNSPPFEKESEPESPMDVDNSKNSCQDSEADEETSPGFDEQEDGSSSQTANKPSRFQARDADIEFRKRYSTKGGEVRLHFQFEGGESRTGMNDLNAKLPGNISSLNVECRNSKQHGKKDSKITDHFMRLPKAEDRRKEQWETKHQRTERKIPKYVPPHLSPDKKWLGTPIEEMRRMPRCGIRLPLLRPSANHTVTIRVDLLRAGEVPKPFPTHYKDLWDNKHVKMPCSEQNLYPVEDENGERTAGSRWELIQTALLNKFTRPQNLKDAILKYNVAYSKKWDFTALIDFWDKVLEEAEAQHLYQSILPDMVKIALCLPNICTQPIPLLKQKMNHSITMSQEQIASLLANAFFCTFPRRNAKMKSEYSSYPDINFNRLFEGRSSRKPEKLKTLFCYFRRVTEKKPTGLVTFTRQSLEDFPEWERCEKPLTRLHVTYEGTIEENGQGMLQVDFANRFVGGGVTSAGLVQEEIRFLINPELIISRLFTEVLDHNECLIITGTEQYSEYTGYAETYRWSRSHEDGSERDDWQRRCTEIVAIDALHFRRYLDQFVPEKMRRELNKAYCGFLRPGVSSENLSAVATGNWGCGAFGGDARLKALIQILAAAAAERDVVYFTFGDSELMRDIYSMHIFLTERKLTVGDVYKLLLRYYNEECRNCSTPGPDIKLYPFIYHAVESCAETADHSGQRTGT

IC50: < 30 nM
Compound: CO/N=c1\[nH]c2c(N3CCN(C(=O)C4(C(F)(F)F)CC4)[C@H](C)C3)cc(S(=O)(=O)NC3(C)CC3)cc2c(=O)n1Cc1cnn(C)c1 [US20260042754, Example 32]
